# Measurements from EP1393728A1, “Inverse agonists acting at virus-encoded G protein-coupled receptors” (priority 2002, dated 2004).
# Tests used:
# US28 [1] = assay: cell-based; design: species or system HCMV (strain AD169); settings: US28-deletion-mutant-HCMV- or mock-infected HFFs
# Procedure: (§1) Cell culture, transfection and infection with HCMV. COS-7 cells were grown as previously described in the cited Casarosa reference. Transfection of the COS-7 cells was performed by DEAE-dextran, using 2 µg of DNA of each US28 construct per million cells. Human foreskin fibroblasts (HFFs) were cultured and infected with […] (strain AD169) or a deletion mutant Δ28-HCMV.
# (§2) [^3H]-inositol phosphate production. Experiments in COS-7 cells and HFFs were performed as described in the references mentioned in the previous paragraph.
# US28 [2] = biological target: T1, US28 (Human cytomegalovirus, UniProt P69332); assay: cell-based; design: species or system HCMV (strain AD169)
# T1 sequence (P69332 whole entry): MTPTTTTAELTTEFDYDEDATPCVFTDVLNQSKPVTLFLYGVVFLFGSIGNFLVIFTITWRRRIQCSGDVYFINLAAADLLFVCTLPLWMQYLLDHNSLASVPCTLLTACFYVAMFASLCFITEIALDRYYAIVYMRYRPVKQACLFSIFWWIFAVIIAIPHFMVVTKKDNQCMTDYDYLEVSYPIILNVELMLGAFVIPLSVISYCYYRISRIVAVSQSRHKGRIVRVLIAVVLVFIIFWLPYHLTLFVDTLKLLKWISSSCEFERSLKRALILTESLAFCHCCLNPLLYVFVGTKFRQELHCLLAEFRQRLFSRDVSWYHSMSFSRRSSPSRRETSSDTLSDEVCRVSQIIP
# Procedure: as §1, §2
# [3] = biological target: T2, human histamine H1 receptor (hH1) (Homo sapiens, UniProt P35367); assay: InsP production in COS-7 cells expressing the histamine H1 receptor; assay type: cell-based; settings: 10 µM, COS-7 cells expressing the H1 receptor
# T2 construct: expressed in transfected cells; host or cells: COS-7
# T2 sequence (P35367 whole entry): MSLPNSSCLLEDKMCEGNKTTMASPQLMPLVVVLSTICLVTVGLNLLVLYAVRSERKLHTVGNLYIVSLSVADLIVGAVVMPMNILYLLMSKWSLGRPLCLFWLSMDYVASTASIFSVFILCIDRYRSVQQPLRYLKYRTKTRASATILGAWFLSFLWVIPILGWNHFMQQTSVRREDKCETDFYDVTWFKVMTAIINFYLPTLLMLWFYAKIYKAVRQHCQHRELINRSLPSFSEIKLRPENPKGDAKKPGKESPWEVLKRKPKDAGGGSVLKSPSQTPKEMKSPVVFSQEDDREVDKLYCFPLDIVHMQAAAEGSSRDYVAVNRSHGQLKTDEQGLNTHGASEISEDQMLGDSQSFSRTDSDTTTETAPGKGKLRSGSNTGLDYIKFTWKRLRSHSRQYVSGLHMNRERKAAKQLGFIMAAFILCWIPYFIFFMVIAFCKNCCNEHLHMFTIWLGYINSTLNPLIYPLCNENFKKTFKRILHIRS
# Procedure: as §2
# Furthermore, the compound of Formula X was tested on COS-7 cells expressing the human histamine H1 receptor (hH1). Like US28, this GPCR constitutively activates PLC enzymes via Gαq/11 proteins.
# US28 [4] = biological target: T1, US28; assay: cell-based; design: species or system HCMV; settings: for % 10^-5 remaining activity on US28 in inositol phosphate assay: at 10^-5; for inverse agonistic effect at US28 relative to the compound of Formula X (statement in words): structure-activity discussion of Table 1; for loss in inverse agonistic potency: relative to the compound of Formula X
# Procedure: as §1, §2
# Data analysis. Curve fitting of data was carried out using the program Prism and IC50 values obtained by nonlinear regression analysis (GraphPad Software, Inc., San Diego, USA). Data are expressed as mean ± S.E.
# In order to find inverse agonists for US28, a variety of compounds were screened for modulation of US28-mediated constitutive inositol phosphate (InsP) production. This approach led to identify the compound of Formula X as inverse agonist for US28.
# transfected cells = assay: AlamarBlue toxicity test; assay type: cell-based; settings: AlamarBlue assay, 2 hours incubation, data not shown
# Procedure: Toxicity test. The AlamarBlue^TM assay (Serotec, Oxford, UK) was performed following the manufacturer's protocol. Briefly, transfected cells were incubated with the compound of Formula X for 2 hours, followed by the addiction of the AlamarBlue dye.
# After 1 hour, the fluorescence was monitored at 560 nm excitation wavelength and 590 nm emission wavelenght in a Victor^2 (PerkinElmer, Boston, USA).
# KSHV-encoded ORF74 = biological target: T3, KSHV-encoded ORF74 (Human herpesvirus 8 type P, UniProt Q98146); assay: ORF74-mediated InsP accumulation (PLC activation) in COS-7 cells; assay type: cell-based; settings: concentration as high as 10 µM
# T3 construct: expressed in transfected cells; host or cells: COS-7
# T3 sequence (Q98146 whole entry): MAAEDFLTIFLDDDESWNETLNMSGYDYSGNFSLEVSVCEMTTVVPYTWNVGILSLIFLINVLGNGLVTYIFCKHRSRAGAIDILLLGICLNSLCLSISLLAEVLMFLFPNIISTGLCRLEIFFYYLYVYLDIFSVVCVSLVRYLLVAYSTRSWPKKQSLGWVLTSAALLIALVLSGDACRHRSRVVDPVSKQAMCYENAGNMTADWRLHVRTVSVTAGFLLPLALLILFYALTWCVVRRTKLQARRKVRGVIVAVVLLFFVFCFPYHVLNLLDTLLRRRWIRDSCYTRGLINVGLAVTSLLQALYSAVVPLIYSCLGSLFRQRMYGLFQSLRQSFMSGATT
# Procedure: as §2
# (§3) Moreover, other GPCRs were used as controls to ascertain specificity of action of this compound. As previously reported, expression ofRCMV-encoded R33 (Gruijthuijsen et al. J. Virol. 76 (2002), 1328-1338) or KSHV-encoded ORF74 (Rosenkilde et al. 274 (1999), 956-961) also leads to constitutive activation of phospholipase C.
# US28 [5] = biological target: T1, US28; assay: biochemical; assay type: binding, HCMV
# US28 [6] = biological target: T1, US28; assay: biochemical; assay type: binding, HCMV (strain AD169); settings: AD169-infected HFFs
# Procedure: as §1
# (§4) Binding experimants. Labeling of RANTES (Peprotech, Rocky Hill, USA) with [^125I] and binding in COS-7 cells were performed as previously described (Gruijthuijsen et al., J. Virol. 76 (2002) 1328-1338).
# Δ(2-22)-US28 = Δ(2-22)-US28 (Human cytomegalovirus, UniProt P69332); assay: cell-based; design: species or system HCMV
# Chain of Δ(2-22)-US28 (P69332 22-354, looked up, stated change not applied): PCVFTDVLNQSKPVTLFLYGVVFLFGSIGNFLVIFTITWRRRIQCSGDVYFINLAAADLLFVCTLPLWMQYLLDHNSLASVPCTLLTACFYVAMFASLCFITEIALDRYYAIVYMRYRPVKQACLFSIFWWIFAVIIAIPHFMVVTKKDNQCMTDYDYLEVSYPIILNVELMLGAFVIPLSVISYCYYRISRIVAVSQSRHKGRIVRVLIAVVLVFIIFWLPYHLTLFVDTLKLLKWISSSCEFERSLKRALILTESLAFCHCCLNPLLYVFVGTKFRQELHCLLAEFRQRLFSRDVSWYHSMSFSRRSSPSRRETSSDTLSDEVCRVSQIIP
# Text: (§5) DNA constructs. The cDNA encoding for US28 (see Casarosa et al. in J, Biol. Chem. 276 (2001) 1133-1137) was inserted into the mammalian vector pcDNAS. Δ(2-22)-US28 and the HA-tagged versions of both WT- and Δ(2-22)-US28 were generated by PCR. Single amino acid mutations, as for E^277A- and E^277Q.US28, were introduced using the Altered Sites® II in vitro Mutagenesis System (Promega, Madison, USA), according to manufacturer's protocol. All constructs were verified by dideoxy sequencing.
# as §2
# HEK-293T cells = assay: MTT test; assay type: cell-based; settings: higher concentrations (above 10^-6M), together with the solvent
# Text: (§6) In order to test the ability of the compound of Formula X to block viral entry via US28, a reporter gene assay was used. In this assay, HEK-293T cells expressing US28 and CD4 are infected by a luciferase-containing HIV-1 reporter virus. Consequently, the level of cellular luciferase activity is proportional to HIV-1 entry. […] Luciferase activity is increased approximately 20 fold in the presence of US28 when compared to cells expressing CD4 alone (fig. 6A). […] At 10^-6M, the compound of Formula X reduces HIV-1 entry to 41 ± 8 % of control cells. Determination of a complete dose-response curve was not possible due to toxic effects of DM50 and the compound at higher concentrations, as determined by MTT test.
# [7] = tested on: US28-mediated HIV-1 entry; assay: HIV-1 infection assay (luciferase reporter virus) in HEK293-T cells with CD4 and US28; assay type: cell-based; settings: Human immunodeficiency virus 1, HEK-293T
# Procedure: HIV-1 infection assay. HEK293-T cells were transiently transfected with pcDNA1-US28 and pcDNA1-CD4 using the calcium phosphate method and cultured overnight in 48 well plates. The following day, cells were incubated with different concentrations of the compound of Formula X (dissolved in DMSO) or medium (containing an equal amount of DMSO) for 2 hours before infection with an R5-tropic HIV- 1 virus containing the luciferase reporter gene under the LTR promoter. After overnight incubation, cells were washed twice and cultivated in fresh medium. 3 days after infection, the luciferase activity was quantitated using the Luciferase Assay System (Promega, Madison, USA).
# as §6
# US28 [8] = biological target: T1, US28; assay type: binding, HCMV; settings: in the presence of 10 µM compound of Formula X (725 ± 69 in its absence)
# Procedure: as §4
# Moreover, the present inventors investigated the effect of the compound of Formula X in a saturation binding assay of [^125I]-RANTES.
# E^277A-US28 = E^277A-US28 (Human cytomegalovirus, UniProt P69332, E277A); assay type: binding, HCMV; settings: E277A-US28, [125I]-RANTES displacement
# Chain of E^277A-US28 (P69332 whole entry E277A): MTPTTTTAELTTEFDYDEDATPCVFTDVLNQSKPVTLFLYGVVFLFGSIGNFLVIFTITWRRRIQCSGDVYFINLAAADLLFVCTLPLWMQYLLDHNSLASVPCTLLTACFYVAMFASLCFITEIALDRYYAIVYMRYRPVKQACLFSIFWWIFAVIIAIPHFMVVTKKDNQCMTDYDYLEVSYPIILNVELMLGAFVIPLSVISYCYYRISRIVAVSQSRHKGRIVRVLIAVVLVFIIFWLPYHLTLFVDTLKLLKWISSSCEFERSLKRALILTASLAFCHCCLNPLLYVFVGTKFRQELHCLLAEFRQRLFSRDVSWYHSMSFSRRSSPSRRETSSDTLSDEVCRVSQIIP
# Text: as §5, §4
# (§7) E^277 was therefore mutated into glutamine, to eliminate the charge but retain the hydrogen bonding potential of the side chain, and into alanine, to eliminate both the charge and the hydrogen bonding potential.
# E^277Q-US28 = E^277Q-US28 (Human cytomegalovirus, UniProt P69332, E277Q); assay type: binding, HCMV; settings: E277Q-US28, [125I]-RANTES displacement
# Chain of E^277Q-US28 (P69332 whole entry E277Q): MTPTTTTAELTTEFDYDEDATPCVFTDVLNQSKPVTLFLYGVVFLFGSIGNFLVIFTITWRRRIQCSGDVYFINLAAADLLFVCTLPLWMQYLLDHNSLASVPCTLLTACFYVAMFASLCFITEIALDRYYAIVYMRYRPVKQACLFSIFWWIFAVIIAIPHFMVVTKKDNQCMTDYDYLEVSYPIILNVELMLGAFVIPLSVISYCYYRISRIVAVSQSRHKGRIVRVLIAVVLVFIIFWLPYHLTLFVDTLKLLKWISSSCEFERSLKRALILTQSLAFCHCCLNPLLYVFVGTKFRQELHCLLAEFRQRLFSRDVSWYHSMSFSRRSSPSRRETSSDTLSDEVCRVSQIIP
# Text: as §5, §4, §7
# RCMV-encoded R33 = biological target: T4, RCMV-encoded R33 (Rat cytomegalovirus, UniProt O12000); assay: R33-mediated InsP accumulation (PLC activation) in COS-7 cells; assay type: cell-based; settings: concentration as high as 10 µM
# T4 construct: expressed in transfected cells; host or cells: COS-7
# T4 sequence (O12000 whole entry): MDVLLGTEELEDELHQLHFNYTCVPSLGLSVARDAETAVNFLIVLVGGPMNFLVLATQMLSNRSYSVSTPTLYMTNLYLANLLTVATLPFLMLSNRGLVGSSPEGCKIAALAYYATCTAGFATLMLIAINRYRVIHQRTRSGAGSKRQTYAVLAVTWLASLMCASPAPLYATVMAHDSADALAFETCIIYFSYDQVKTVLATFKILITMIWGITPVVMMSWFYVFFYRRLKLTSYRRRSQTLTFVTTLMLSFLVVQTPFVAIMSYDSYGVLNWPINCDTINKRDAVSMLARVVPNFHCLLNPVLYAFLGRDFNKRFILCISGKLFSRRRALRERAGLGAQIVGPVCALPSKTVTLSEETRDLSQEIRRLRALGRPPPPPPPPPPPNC
# Procedure: as §2, §3
# [9] = IC50 InsP, inhibition of US28-mediated InsP production, COS-7 cells, N.A. = non active
compound,measurement,setting,value
N#CC(CCCN1CCC(O)(c2ccc(Cl)cc2)CC1)(c1ccccc1)c1ccccc1 [Formula X],effect on InsP signaling,US28 [1],does not affect
same,IC50,US28 [2],0.776 µM
same,basal or histamine-induced production of InsP,[3],does not alter
same,kind of inverse agonism at US28 (inhibition of signaling complete),US28 [4]; COS-7 cells,full inverse agonist
same,IC50,US28 [4]; [9],3.5 µM
same,% 10^-5 remaining activity on US28 in inositol phosphate assay,US28 [4],10%
same,IC50,"US28 [4]; pIC50 of US28 mediated InsP production, COS-7 cells, WT-US28",3.47 µM
same,cellular toxicity,transfected cells,did not show cellular toxicity
same,modulation of ORF74-mediated PLC activation,KSHV-encoded ORF74,does not modulate
same,IC50,US28 [5],8.4 µM
same,IC50,US28 [6]; IC50 of [125I]-RANTES displacement,0.708 µM
same,IC50,US28 [6]; pIC50 of [125I]-RANTES displacement,0.708 µM
same,IC50,Δ(2-22)-US28,4.47 µM
same,inhibition of constitutive signaling,"Δ(2-22)-US28; Δ(2-22)-US28, COS-7 cells",totally inhibits
same,toxicity by MTT test,HEK-293T cells,toxic effects
same,activity at 1 µM,"[7]; read-out: HIV-1 entry, % of control cells",41 ± 8%
same,inhibition at 1 µM,[7]; read-out: inhibition of viral entry,60%
same,Bmax value of [125I]-RANTES,US28 [8],380 ± 36 fmol/mg protein
same,affinity compared to WT-US28,E^277A-US28,markedly reduced
same,affinity compared to WT-US28,E^277Q-US28,markedly reduced
same,modulation of R33-mediated PLC activation,RCMV-encoded R33,does not modulate
"CC(C)(C)c1ccc(C(O)CCCN2CCC(C(O)(c3ccccc3)c3ccccc3)CC2)cc1 (stereo not drawn) [Terfenadine, α-[4-(1,1-dimethylethyl)phenyl]-4-(hydroxydiphenylmethyl)-1-piperidinebutanol, reference compound]",% 10^-5 remaining activity on US28 in inositol phosphate assay,US28 [4],15%
N#CC(CCCN1CCN(c2ccc(Cl)cc2)CC1)(c1ccccc1)c1ccccc1 [VUF5658],% 10^-5 remaining activity on US28 in inositol phosphate assay,US28 [4],88%
same,inverse agonistic effect at US28 relative to the compound of Formula X (statement in words),US28 [4],inactive
N#CC(CCCN1CCC(O)(c2ccccc2)CC1)(c1ccccc1)c1ccccc1 [VUF5660],IC50,US28 [4]; [9],29 µM
same,% 10^-5 remaining activity on US28 in inositol phosphate assay,US28 [4],60%
same,loss in inverse agonistic potency,US28 [4],five- to ten-fold
same,IC50,US28 [5],35 µM
N#CC(CCCN1CCC(c2ccc(Cl)cc2)CC1)(c1ccccc1)c1ccccc1 [VUF5662],IC50,US28 [4]; [9],14 µM
same,% 10^-5 remaining activity on US28 in inositol phosphate assay,US28 [4],60%
same,loss in inverse agonistic potency,US28 [4],five- to ten-fold
same,IC50,"US28 [5]; [125I]-RANTES binding at US28, COS-7 cells, N.A. = non active, read-out: IC50 binding",10.5 µM
N#CC(CCCN1CC=C(c2ccc(Cl)cc2)CC1)(c1ccccc1)c1ccccc1 [VUF5664],% 10^-5 remaining activity on US28 in inositol phosphate assay,US28 [4],83%
O=C(CCCN1CCC(O)(c2ccc(Cl)cc2)CC1)c1ccccc1 [VUF5666],% 10^-5 remaining activity on US28 in inositol phosphate assay,US28 [4],70%
OC1(c2ccc(Cl)cc2)CCN(CCCC(c2ccccc2)c2ccccc2)CC1 [VUF5667],IC50,US28 [4]; [9],4.2 µM
same,% 10^-5 remaining activity on US28 in inositol phosphate assay,US28 [4],23%
same,inverse agonistic effect at US28 relative to the compound of Formula X (statement in words),US28 [4],does not affect the activity
same,IC50,US28 [5],5.9 µM
N#CC1(CCCN2CCC(O)(c3ccc(Cl)cc3)CC2)c2ccccc2CCc2ccccc21 [VUF5713],IC50,US28 [4]; [9],5.3 µM
same,% 10^-5 remaining activity on US28 in inositol phosphate assay,US28 [4],-5%
same,inverse agonistic effect at US28 relative to the compound of Formula X (statement in words),US28 [4],comparable potencies
same,IC50,US28 [5],9.6 µM
OC1(c2ccc(Cl)cc2)CCN(CCCOc2ccccc2)CC1 [VUF5714],% 10^-5 remaining activity on US28 in inositol phosphate assay,US28 [4],77%
N#CC(O)(CCCN1CCC(O)(c2ccc(Cl)cc2)CC1)c1ccccc1 (stereo not shown) [VUF5715],inverse agonistic effect at US28 relative to the compound of Formula X (statement in words),US28 [4],loss of effect
O=C(NCC(CCCN1CCC(O)(c2ccc(Cl)cc2)CC1)(c1ccccc1)c1ccccc1)NC1CCNCC1 [VUF5717],% 10^-5 remaining activity on US28 in inositol phosphate assay,US28 [4],100%
N#CC(CCCN1CCC(C(=O)O)CC1)(c1ccccc1)c1ccccc1 [VUF5718],% 10^-5 remaining activity on US28 in inositol phosphate assay,US28 [4],85%
N#CC(CCCN1CCC(C(N)=O)CC1)(c1ccccc1)c1ccccc1 [VUF5720],% 10^-5 remaining activity on US28 in inositol phosphate assay,US28 [4],87%
N#CC1(CCCN2CCC(O)(c3ccc(Cl)cc3)CC2)c2ccccc2CSc2ccccc21 (stereo not shown) [VUF5727],% 10^-5 remaining activity on US28 in inositol phosphate assay,US28 [4],14%
NCC(CCCN1CCC(O)(c2ccc(Cl)cc2)CC1)(c1ccccc1)c1ccccc1 [VUF5728],% 10^-5 remaining activity on US28 in inositol phosphate assay,US28 [4],10%
